# According to patent US5405857A, “3-substituted 1,2,3,4,-oxatriazole-5-imine compounds, a process for the preparation thereof and a pharmaceutical preparation containing said compounds” (A/S GEA Farmaceutisk Fabrik, priority 1991, dated 1995):
# Legend:
# blood platelets = experiment: Inhibition of blood platelet aggregation (aggregometer, ADP); format: cell-based, human (healthy testees); conditions: Platelet, 0.05 h; human PRP, ADP 2 to 4 μM, 3 min incubation, 37° C.; read-out: IC50 (Inhibition of blood platelet aggregation)
# How it was run: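 Citrated human PRP (0.38% sodium citrate final; donors drug-free ≥8 days) preincubated 3 min with test substance at 37 °C under stirring, then ADP 2 to 4 μM added; aggregation followed by light transmission against PPP. IC50 from linear regression of % inhibition vs log concentration.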
# [1] = biological target: T1, soluble guanylate cyclase (Homo sapiens, UniProt Q02153); experiment: Stimulation of guanylate cyclase from blood platelets (RIA); format: biochemical; conditions: 37° C.
# T1 construct: The guanylate cyclase activity in the supernatant after incubation with and without the test substance; endogenous in cells; host or cells: human blood platelets, supernatant of homogenate
# T1 sequence (Q02153 1-619): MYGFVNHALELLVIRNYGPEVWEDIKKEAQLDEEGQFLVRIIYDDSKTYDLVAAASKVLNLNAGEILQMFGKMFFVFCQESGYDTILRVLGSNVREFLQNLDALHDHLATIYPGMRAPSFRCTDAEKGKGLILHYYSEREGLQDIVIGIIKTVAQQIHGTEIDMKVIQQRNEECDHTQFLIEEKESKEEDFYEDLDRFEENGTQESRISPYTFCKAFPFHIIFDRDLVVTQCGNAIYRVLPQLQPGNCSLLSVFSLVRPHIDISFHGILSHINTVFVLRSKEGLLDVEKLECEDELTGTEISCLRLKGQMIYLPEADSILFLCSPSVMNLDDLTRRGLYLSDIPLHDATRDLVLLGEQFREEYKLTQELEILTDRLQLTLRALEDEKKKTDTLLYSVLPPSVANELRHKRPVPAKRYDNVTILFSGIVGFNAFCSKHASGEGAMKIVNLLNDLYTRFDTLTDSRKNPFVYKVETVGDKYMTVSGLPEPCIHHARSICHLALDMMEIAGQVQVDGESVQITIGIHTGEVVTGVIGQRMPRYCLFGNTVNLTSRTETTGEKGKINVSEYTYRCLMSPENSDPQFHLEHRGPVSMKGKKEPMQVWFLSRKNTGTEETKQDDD
# T1 sequence (Q02108 1-690 partner): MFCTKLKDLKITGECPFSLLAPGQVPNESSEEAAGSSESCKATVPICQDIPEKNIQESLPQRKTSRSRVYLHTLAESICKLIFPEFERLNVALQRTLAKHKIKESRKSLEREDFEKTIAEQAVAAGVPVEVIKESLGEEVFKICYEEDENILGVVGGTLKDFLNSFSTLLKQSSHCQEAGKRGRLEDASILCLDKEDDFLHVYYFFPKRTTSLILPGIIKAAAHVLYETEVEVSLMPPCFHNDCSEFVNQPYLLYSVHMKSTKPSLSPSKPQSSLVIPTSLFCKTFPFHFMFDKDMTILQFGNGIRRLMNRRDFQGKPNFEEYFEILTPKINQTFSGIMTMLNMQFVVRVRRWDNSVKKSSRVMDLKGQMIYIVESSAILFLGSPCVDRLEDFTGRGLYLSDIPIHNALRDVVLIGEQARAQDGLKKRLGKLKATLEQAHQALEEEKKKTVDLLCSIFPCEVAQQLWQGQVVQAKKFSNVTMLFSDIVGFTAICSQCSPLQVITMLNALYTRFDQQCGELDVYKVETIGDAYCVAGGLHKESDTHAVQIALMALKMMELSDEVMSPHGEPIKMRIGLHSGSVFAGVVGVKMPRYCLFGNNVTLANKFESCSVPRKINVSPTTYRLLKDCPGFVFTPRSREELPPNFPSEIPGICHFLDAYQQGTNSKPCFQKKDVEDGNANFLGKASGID
# PAI-1 = experiment: Inhibition of plasminogen activator inhibitor (PAI-1) from blood platelets (fibrinolytic activity); format: cell-based, human; conditions: 50 μM, 60 minutes
# Procedure: Compounds according to the invention were tested for their inhibition of plasminogen activator inhibitor (PAI). An established thrombus comprises aggregated platelets cohered by fibrin. The organism has a fibrinolyric system for maintaining normal physiological conditions. Endogenous plasminogen is activated to plasmin (fibrinolysin, that is a proteolytic enzyme decomposing fibrin) by means of a tissue plasminogen activator (t-PA). The platelets include the enzyme PAI-1 inhibiting the activation of plasminogen to plasmin, and thus also the decomposition of fibrin.
# A general stimulation of the fibrinolytic system can cause serious hemostatic side effects (haemorrhages). A specific inhibition of PAI-1 induces an increased fibrinolysis in areas with many platelets, which is exactly the case in thrombi. As a result a thrombolytic effect is obtained.
# Human PRP prepared by slight centrifugation as previously mentioned is used, but at a low temperature (4° C.). By incubation of PRP (1 ml in a plastic tube) during a slight shaking at 37° C. the PAI-1 activity is liberated, said PAI-1 activity being measured spectrophotometrically by means of a two-step procedure using commercial kits (Spectrolyse™/fibrin kit from BIOPOOL, Sweden).
# The PAI-1 activity of the control PRP and PRP incubated with each of 6 compounds according to the invention and the reference substance sodium niroprusside (NNP) (50 μM of each for 60 minutes) appear from Table 6.
structure (smiles),measurement,setting,value
COc1ccc(Cl)cc1-[n+]1noc([NH-])n1 [Example 20],IC50,blood platelets,180 nM
same,Guanylate cyclase activity,[1]; 0.01 μM,2225 pmole c-GMP/mg prot. × 15 minutes
same,Guanylate cyclase activity,[1]; 10 μm (so in the source),47298 pmole c-GMP/mg prot. × 15 minutes
same,% Inhibition of PAI-1 activity,PAI-1; compared to control,35%
same,PAI-1 activity,"PAI-1; human PRP, control 3.24",2.09 U/10^8 platelets
